15 molecules from patent US20240409585A1, “MACROCYCLIC IMMUNOMODULATORS” (priority 2021, published 2024) can be followed below.

Molecules are shown by their SMILES. Numbered stars: 1 amine (or outer) side, 2 acyl side, 3 side chain; on linkers, the order of the positions; unused ones are H or OH. Bridge positions count the residues as written; N and C are the ends. Square brackets hold non-standard residues; d marks the D form. Peptide text beside a SMILES is read from it. * marks the point of attachment. ξ: configuration not given here. Tyr(3-NO2) = N[C@@H](Cc1ccc(O)c([N+](=O)[O-])c1)C(=O)O; X39 = COc1cccc(-c2ccc(C[C@H](N[*:1])C(=O)[*:2])cc2)c1; Phe(4-COOH) = N[C@@H](Cc1ccc(C(=O)O)cc1)C(=O)O; Bip = N[C@@H](Cc1ccc(-c2ccccc2)cc1)C(=O)O; Phe(3-CN) = N#Cc1cccc(C[C@H](N)C(=O)O)c1; Phe(3-Me) = Cc1cccc(C[C@H](N)C(=O)O)c1; 2Nal = N[C@@H](Cc1ccc2ccccc2c1)C(=O)O; Val(3-OH) = CC(C)(O)[C@H](N)C(=O)O; 2Pal = N[C@@H](Cc1ccccn1)C(=O)O; 4Pal = N[C@@H](Cc1ccncc1)C(=O)O; Cha = N[C@@H](CC1CCCCC1)C(=O)O; Cit = NC(=O)NCCC[C@H](N)C(=O)O; Ile(3ξ) = CCC(C)[C@H](N)C(=O)O; Thr(3ξ) = CC(O)[C@H](N)C(=O)O; hLeu = CC(C)CC[C@H](N)C(=O)O; Dap(Me) = CNC[C@H](N)C(=O)O; Carboxymethyl = O=C(O)C*; NMeA = CN[C@@H](C)C(=O)O; Orn = NCCC[C@H](N)C(=O)O; Dab = NCC[C@H](N)C(=O)O; Dap = NC[C@H](N)C(=O)O

The target in the assay is T1, PE-labeled human PD-L1-Ig binding to Jurkat cell line over-expressing human PD-1 (Jurkat-PD-1) (Homo sapiens, UniProt Q15116).
T1 construct: expressed in transfected cells; host or cells: Jurkat
T1 sequence (Q15116 25-288): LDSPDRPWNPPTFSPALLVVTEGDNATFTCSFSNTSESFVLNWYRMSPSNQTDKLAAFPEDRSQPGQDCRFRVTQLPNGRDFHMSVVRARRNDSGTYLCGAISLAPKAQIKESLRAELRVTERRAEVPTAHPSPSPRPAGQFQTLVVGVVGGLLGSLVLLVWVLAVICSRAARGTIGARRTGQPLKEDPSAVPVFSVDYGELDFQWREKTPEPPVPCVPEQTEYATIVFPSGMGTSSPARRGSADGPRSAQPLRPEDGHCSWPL
As to the kind of experiment: Jurkat-PD-1 Cell Binding High-Content Screening Assay (CBA): Method 1. The following applies: Jurkat-hPD-1 cells, PE-labeled PD-L1-Ig 20 nM final; read-out: Jurkat HPDL1 PD1 IC50 (uM) (Method 1).
Turning to `CC(C)C[C@@H]1NC(=O)[C@H](Cc2c[nH]c3ccccc23)NC(=O)[C@H](CC(=O)O)NC(=O)[C@H](Cc2ccc(C(=O)O)cc2)NC(=O)[C@H](Cc2ccc(OCC(=O)O)cc2)NC(=O)CSC[C@@H](C(=O)N[C@H](C)C(N)=O)NC(=O)[C@H](CCC(=O)O)NC(=O)[C@H](C(C)(C)O)NC(=O)[C@H](CC2CCCCC2)NC(=O)[C@H](CCN)NC(=O)[C@@H](CC(C)C)NC(=O)[C@H](C)N(C)C(=O)[C@H](C(C)(C)O)NC(=O)[C@H](Cc2ccc(-c3ccccc3)cc2)NC1=O` [Compound 1715] ({CH2CO}-Y(Carboxymethyl)[Phe(4-COOH)]DWL[Bip][Val(3-OH)][NMeA][dL][Dab][Cha][Val(3-OH)]EC[dA]-NH2; thioether N-14), the half-inhibitory concentration (IC50) amounted to 0.06 µM.
For `CC(C)C[C@@H]1NC(=O)[C@H](CCN)NC(=O)[C@@H](CC(C)C)NC(=O)[C@H](C)N(C)C(=O)[C@H](CCCNC(N)=O)NC(=O)[C@H](Cc2ccc(-c3ccccc3)cc2)NC(=O)[C@H](C(C)C)NC(=O)[C@H](Cc2c[nH]c3ccccc23)NC(=O)[C@H](CC(=O)O)NC(=O)[C@H](Cc2ccc(O)c([N+](=O)[O-])c2)NC(=O)[C@H](Cc2ccccn2)NC(=O)CSC[C@@H](C(=O)N[C@@H](C)C(N)=O)NC(=O)[C@H]([C@@H](C)O)NC(=O)[C@H](C(C)C)NC1=O` [Compound 1337] ({CH2CO}-[2Pal][Tyr(3-NO2)]DWV[Bip][Cit][NMeA][dL][Dab]LVTCA-NH2; thioether N-14), the 50% inhibitory concentration (IC50) was 0.28 µM.
The value for `CCC(C)[C@@H]1NC(=O)[C@H](Cc2ccc(-c3ccccc3)cc2)NC(=O)[C@H](CC(C)C)NC(=O)[C@H](Cc2c[nH]c3ccccc23)NC(=O)[C@H](CC(=O)O)NC(=O)[C@H](Cc2ccc(C(=O)O)cc2)NC(=O)[C@H](Cc2ccc(OCC(=O)O)cc2)NC(=O)CSC[C@@H](C(=O)N[C@@H](CO)C(N)=O)NC(=O)[C@H](CCC(N)=O)NC(=O)[C@H](C(C)C)NC(=O)[C@H](CC2CCCCC2)NC(=O)[C@H](CCN)NC(=O)[C@@H](CC(C)C)NC(=O)[C@H](C)N(C)C1=O` (stereo partly drawn) [Compound 1931] ({CH2CO}-Y(Carboxymethyl)[Phe(4-COOH)]DWL[Bip][Ile(3ξ)][NMeA][dL][Dab][Cha]VQCS-NH2; thioether N-14) was 0.02 µM; that for `Cc1cccc(C[C@@H]2NC(=O)[C@H](CC(=O)O)NC(=O)[C@H](Cc3ccc(C(=O)O)cc3)NC(=O)[C@H](C(C)O)NC(=O)CSC[C@@H](C(=O)N[C@@H](CCN)C(N)=O)NC(=O)[C@H](CO)NC(=O)[C@H](C(C)(C)O)NC(=O)[C@H](CC3CCCCC3)NC(=O)[C@H](CCN)NC(=O)[C@@H](CC(C)C)NC(=O)[C@H](C)N(C)C(=O)[C@H](Cc3ccc(OCC(=O)O)cc3)NC(=O)[C@H](Cc3ccc(-c4ccccc4)cc3)NC(=O)[C@H](Cc3ccc(OCC(=O)O)cc3)NC2=O)c1` (stereo partly drawn) [Compound 2151] ({CH2CO}-[Thr(3ξ)][Phe(4-COOH)]D[Phe(3-Me)]Y(Carboxymethyl)[Bip]Y(Carboxymethyl)[NMeA][dL][Dab][Cha][Val(3-OH)]SC[Dab]-NH2; thioether N-14) was 0.02 µM.
As for `CC(C)C[C@@H]1NC(=O)[C@H](CCN)NC(=O)[C@@H](CC(C)C)NC(=O)[C@H](C)N(C)C(=O)[C@H](Cc2cnc[nH]2)NC(=O)[C@H](Cc2ccc(-c3ccccc3)cc2)NC(=O)[C@H](C(C)C)NC(=O)[C@H](Cc2c[nH]c3ccccc23)NC(=O)[C@H](CC(=O)O)NC(=O)[C@H](Cc2cccc(C#N)c2)NC(=O)[C@H](CC(N)=O)NC(=O)CSC[C@@H](C(=O)N[C@@H](C)C(N)=O)NC(=O)[C@H]([C@@H](C)O)NC(=O)[C@H](C(C)C)NC1=O` [Compound 1375] ({CH2CO}-N[Phe(3-CN)]DWV[Bip]H[NMeA][dL][Dab]LVTCA-NH2; thioether N-14), the IC50 stood at 0.05 µM.
For `CC(C)C[C@@H]1NC(=O)[C@H](CCCN)NC(=O)[C@@H](CC(C)C)NC(=O)[C@H](C)N(C)C(=O)[C@H](C(C)C)NC(=O)[C@H](Cc2ccc(-c3ccccc3)cc2)NC(=O)[C@H](C(C)C)NC(=O)[C@H](Cc2c[nH]c3ccccc23)NC(=O)[C@H](CC(=O)O)NC(=O)[C@H](Cc2ccc(O)cc2)NC(=O)[C@H](CC(N)=O)NC(=O)CSC[C@@H](C(=O)N[C@@H](C)C(N)=O)NC(=O)[C@H]([C@@H](C)O)NC(=O)[C@H](C(C)C)NC1=O` [Compound 1243] ({CH2CO}-NYDWV[Bip]V[NMeA][dL][Orn]LVTCA-NH2; thioether N-14) the value was 0.01 µM; for `CC(C)C[C@@H]1NC(=O)[C@H](CC(N)=O)NC(=O)[C@@H](CC(C)C)NC(=O)[C@H](C)N(C)C(=O)[C@H](CCCNC(N)=O)NC(=O)[C@H](Cc2ccc(-c3ccccc3)cc2)NC(=O)[C@H](C(C)C)NC(=O)[C@H](Cc2c[nH]c3ccccc23)NC(=O)[C@H](CC(=O)O)NC(=O)[C@H](Cc2ccc(O)cc2)NC(=O)[C@H](Cc2ccccc2)NC(=O)CSC[C@@H](C(=O)N[C@@H](C)C(=O)N[C@@H](CCN)C(=O)O)NC(=O)[C@H](CO)NC(=O)[C@H](C(C)C)NC1=O` [Compound 2000] ({CH2CO}-FYDWV[Bip][Cit][NMeA][dL]NLVSCA[Dab]-OH; thioether N-14), 0.02 µM.
The value for `Cc1cccc(C[C@@H]2NC(=O)[C@H](Cc3ccncc3)NC(=O)CSC[C@@H](C(=O)NCC(N)=O)NC(=O)[C@H](CO)NC(=O)[C@H](C(C)C)NC(=O)[C@H](CC(C)C)NC(=O)[C@H](CC(N)=O)NC(=O)[C@@H](CC(C)C)NC(=O)[C@H](C)N(C)C(=O)[C@H](C(C)C)NC(=O)[C@H](Cc3ccc(-c4ccccc4)cc3)NC(=O)[C@H](CC(C)C)NC(=O)[C@H](Cc3c[nH]c4ccccc34)NC(=O)[C@H](CC(=O)O)NC2=O)c1` [Compound 1519] ({CH2CO}-[4Pal][Phe(3-Me)]DWL[Bip]V[NMeA][dL]NLVSCG-NH2; thioether N-14) was 0.02 µM; that for `COc1cccc(-c2ccc(C[C@@H]3NC(=O)[C@H](C(C)C)NC(=O)[C@H](Cc4c[nH]c5ccccc45)NC(=O)[C@H](CC(=O)O)NC(=O)[C@H](Cc4ccc(O)cc4)NC(=O)[C@H](CC(N)=O)NC(=O)CSC[C@@H](C(=O)N[C@@H](C)C(N)=O)NC(=O)[C@H]([C@@H](C)O)NC(=O)[C@H](C(C)C)NC(=O)[C@H](CC(C)C)NC(=O)[C@H](CCN)NC(=O)[C@@H](CC(C)C)NC(=O)[C@H](C)N(C)C(=O)[C@H](CCCNC(=N)N)NC3=O)cc2)c1` [Compound 1211] ({CH2CO}-NYDWV[X39]R[NMeA][dL][Dab]LVTCA-NH2; thioether N-14) was 0.37 µM.
Regarding `CC(C)CC[C@@H]1NC(=O)[C@H](CCCNC(=N)N)NC(=O)[C@@H](CC(C)C)NC(=O)[C@H](C)N(C)C(=O)[C@H](CCCNC(=N)N)NC(=O)[C@H](Cc2ccc(-c3ccccc3)cc2)NC(=O)[C@H](C(C)C)NC(=O)[C@H](Cc2c[nH]c3ccccc23)NC(=O)[C@H](CC(=O)O)NC(=O)[C@H](Cc2ccc(O)cc2)NC(=O)[C@H](Cc2ccccc2)NC(=O)CSC[C@@H](C(=O)N[C@@H](C)C(N)=O)NC(=O)[C@H]([C@@H](C)O)NC(=O)[C@H](C(C)C)NC1=O` [Compound 1116] ({CH2CO}-FYDWV[Bip]R[NMeA][dL]R[hLeu]VTCA-NH2; thioether N-14), the IC50 came to 0.06 µM.
For `CCC(C)[C@@H]1NC(=O)[C@H](Cc2ccc(-c3ccccc3)cc2)NC(=O)[C@H](C(C)C)NC(=O)[C@H](Cc2cccc(C)c2)NC(=O)[C@H](CC(=O)O)NC(=O)[C@H](Cc2ccc(OCC(=O)O)cc2)NC(=O)[C@H](C(C)O)NC(=O)CSC[C@@H](C(=O)N[C@@H](CO)C(=O)O)NC(=O)[C@H](C(C)O)NC(=O)[C@H](C(C)C)NC(=O)[C@H](CC2CCCCC2)NC(=O)[C@H](CCN)NC(=O)[C@@H](CC(C)C)NC(=O)[C@H](C)N(C)C1=O` (stereo partly drawn) [Compound 2232] ({CH2CO}-[Thr(3ξ)]Y(Carboxymethyl)D[Phe(3-Me)]V[Bip][Ile(3ξ)][NMeA][dL][Dab][Cha]V[Thr(3ξ)]CS-OH; thioether N-14) the value was 0.01 µM; for `CC(C)C[C@@H]1NC(=O)[C@H](Cc2c[nH]c3ccccc23)NC(=O)[C@H](CC(=O)O)NC(=O)[C@H](Cc2ccncc2)NC(=O)[C@H](CN)NC(=O)CSC[C@@H](C(=O)NCC(N)=O)NC[C@H](CO)NC(=O)[C@H](C(C)C)NC(=O)[C@H](CC2CCCCC2)NC(=O)[C@H](CC(N)=O)NC(=O)[C@@H](CC(C)C)NC(=O)[C@H](C)N(C)C(=O)[C@H](C(C)C)NC(=O)[C@H](Cc2ccc(-c3ccccc3)cc2)NC1=O` [Compound 1625], 0.01 µM.
Regarding `CC(C)C[C@@H]1NC(=O)[C@H](Cc2c[nH]c3ccccc23)NC(=O)[C@H](CC(=O)O)NC(=O)[C@H](Cc2ccc3ccccc3c2)NC(=O)[C@H](Cc2ccccc2)NC(=O)CSC[C@@H](C(=O)N[C@@H](C)C(N)=O)NC(=O)[C@H](CO)NC(=O)[C@H](C(C)C)NC(=O)[C@H](CC(C)C)NC(=O)[C@H](CC(N)=O)NC(=O)[C@@H](C)NC(=O)[C@H](C)N(C)C(=O)[C@H](C(C)C)NC(=O)[C@H](Cc2ccc(-c3ccccc3)cc2)NC1=O` [Compound 1800] ({CH2CO}-F[2Nal]DWL[Bip]V[NMeA][dA]NLVSCA-NH2; thioether N-14), the IC50 came to 0.18 µM.
For `CCC(C)[C@@H]1NC(=O)[C@H](Cc2ccc(-c3ccccc3)cc2)NC(=O)[C@H](C(C)C)NC(=O)[C@H](Cc2c[nH]c3ccccc23)NC(=O)[C@H](CC(=O)O)NC(=O)[C@H](Cc2ccc(OCC(=O)O)cc2)NC(=O)[C@H](CNC)NC(=O)CSC[C@@H](C(=O)N[C@@H](CC(N)=O)C(N)=O)NC(=O)[C@H](C(C)O)NC(=O)[C@H](C(C)C)NC(=O)[C@H](CC2CCCCC2)NC(=O)[C@H](CN)NC(=O)[C@@H](CC(C)C)NC(=O)[C@H](C)N(C)C1=O` (stereo partly drawn) [Compound 2078] ({CH2CO}-[Dap(Me)]Y(Carboxymethyl)DWV[Bip][Ile(3ξ)][NMeA][dL][Dap][Cha]V[Thr(3ξ)]CN-NH2; thioether N-14) the value was 0.02 µM; for `Cc1cccc(C[C@@H]2NC(=O)[C@H](CC(=O)O)NC(=O)[C@H](Cc3ccc(OCC(=O)O)cc3)NC(=O)[C@H](CC(N)=O)NC(=O)CSC[C@@H](C(N)=O)NC(=O)[C@H]([C@@H](C)O)NC(=O)[C@H](C(C)C)NC(=O)[C@H](CC3CCCCC3)NC(=O)[C@H](CCN)NC(=O)[C@@H](CC(C)C)NC(=O)[C@H](C)N(C)C(=O)[C@H](Cc3ccc(OCC(=O)O)cc3)NC(=O)[C@H](Cc3ccc(-c4ccccc4)cc3)NC(=O)[C@H](Cc3ccc(OCC(=O)O)cc3)NC2=O)c1` [Compound 1666] ({CH2CO}-NY(Carboxymethyl)D[Phe(3-Me)]Y(Carboxymethyl)[Bip]Y(Carboxymethyl)[NMeA][dL][Dab][Cha]VTC-NH2; thioether N-14), 0.09 µM.

One may read the IC50 as the midpoint of a concentration-inhibition curve.
